# Experimental data: patent US9738902B2, “Modified PYR/PYL receptors activated by ligands” (priority 2013, dated 2017)
# Experiments:
# Assay type in all cases: cell-based
# PYR1 K59R A89C E141Y = target: T1, PYR1 K59R A89C E141Y (Arabidopsis thaliana, UniProt O49686, A89C/E141Y/K59R); assay: Y2H Combinatorial Mutagenesis Screen I (HAB1, X-gal)
# T1 construct: expressed in transfected cells; host or cells: S. cerevisiae Y190 two-hybrid reporter strain
# Text: (§1) This screening approach yielded mutants at ligand contacting residues that alter sensitivity to specific ligands. We reasoned that receptor sensitivity could be improved by systematically constructing combinations of the best mutant variants identified in the first round of screening. To test this, we constructed mutant combinations using the strongest mutations identified for mandipropamid, benzothiadiazole, benoxacor or fludioxonil sensitivity. The mutations selected for combinatorial mutagenesis are listed in bold type in Table 1; The mutant combinations were constructed using the QuickChange Lightning Multi Site-Directed PCR Mutagenesis kit (Agilent, USA) using pBD-PYR1^K59R template DNA and mutagenic primers, essentially as previously described (Mosquna et al., 2011). The mutant combinations were sequence validated, introduced into the pACT-HAB1 Y190 reporter strain and then tested for responsiveness to a range of compound concentrations (100, 50, 25, 10, 1, 0.2, 0.1 or 0 μM each test compound). These efforts yielded double mutant receptor variants with improved sensitivity for the 4 compound/receptor pairs examined (see entries labeled “Combinatorial Mutagenesis Screen I” in Table 1).
# PYR1 K59R L117C V164K = target: T2, PYR1 K59R L117C V164K (Arabidopsis thaliana, UniProt O49686, K59R/L117C/V164K); assay: as above
# T2 construct: expressed in transfected cells; host or cells: S. cerevisiae Y190 two-hybrid reporter strain
# Text: as §1
# PYR1 K59R A160G V164K = target: T3, PYR1 K59R A160G V164K (Arabidopsis thaliana, UniProt O49686, A160G/K59R/V164K); assay: as above
# T3 construct: expressed in transfected cells; host or cells: S. cerevisiae Y190 two-hybrid reporter strain
# Text: as §1
# PYR1 K59R A160G L117C = target: T4, PYR1 K59R A160G L117C (Arabidopsis thaliana, UniProt O49686, A160G/K59R/L117C); assay: as above
# T4 construct: expressed in transfected cells; host or cells: S. cerevisiae Y190 two-hybrid reporter strain
# Text: as §1
# PYR1 K59R A89C L117C = target: T5, PYR1 K59R A89C L117C (Arabidopsis thaliana, UniProt O49686, A89C/K59R/L117C); assay: as above
# T5 construct: expressed in transfected cells; host or cells: S. cerevisiae Y190 two-hybrid reporter strain
# Text: as §1
# PYR1 K59R E141Y A160G = target: T6, PYR1 K59R E141Y A160G (Arabidopsis thaliana, UniProt O49686, A160G/E141Y/K59R); assay: as above
# T6 construct: expressed in transfected cells; host or cells: S. cerevisiae Y190 two-hybrid reporter strain
# Text: as §1
# PYR1 K59R A89C V164K = target: T7, PYR1 K59R A89C V164K (Arabidopsis thaliana, UniProt O49686, A89C/K59R/V164K); assay: as above
# T7 construct: expressed in transfected cells; host or cells: S. cerevisiae Y190 two-hybrid reporter strain
# Text: as §1
# PYR1 K59R A89C A160G = target: T8, PYR1 K59R A89C A160G (Arabidopsis thaliana, UniProt O49686, A160G/A89C/K59R); assay: as above
# T8 construct: expressed in transfected cells; host or cells: S. cerevisiae Y190 two-hybrid reporter strain
# Text: as §1
# PYR1 K59R A160G = target: T9, PYR1 K59R A160G (Arabidopsis thaliana, UniProt O49686, A160G/K59R); assay: Y2H Pocket Library Screen (HAB1, X-gal)
# T9 construct: expressed in transfected cells; host or cells: S. cerevisiae Y190
# Protocol: (§2) The set of 475 mutant plasmids were individually transformed into the Y190 yeast two hybrid reporter strain co-transformed with pACT-HAB1, as previously described (Park et al., 2009). The yeast strains generated were arrayed into 96-well plates yielding what we refer to as the “pocket library”. The pocket library strains were spotted onto agar plates containing selective synthetic dextrose (minus Leu & Trp) medium that was supplemented with a single test compound at 100 μM. The pocket library strains were separately tested for responsiveness to the following compounds: dichlobenil, benzothiadiazole, mandipropamid, fludioxonil, and benoxacor. After incubating test plates at 30° C. for two days, colonies were chloroform lysed and stained to reveal β-galactosidase expression levels, using previously described methods (Park et al., 2009). Mutants displaying responsiveness to the test compound, if present, were identified by virtue of X-gal staining and then subjected to subsequent optimization efforts. Using this approach we identified mutations that conferred detectable sensitivity to the compounds tested (see entries labeled “Pocket Library Screens” in Table 1).
# PYR1 K59R M158T = target: T10, PYR1 K59R M158T (Arabidopsis thaliana, UniProt O49686, K59R/M158T); assay: Y2H Pocket Library Screen (HAB1, X-gal)
# T10 construct: expressed in transfected cells; host or cells: S. cerevisiae Y190 two-hybrid reporter strain
# Protocol: as §2
# PYR1 K59R E141Y = target: T11, PYR1 K59R E141Y (Arabidopsis thaliana, UniProt O49686, E141Y/K59R); assay: Y2H Pocket Library Screen (HAB1, X-gal)
# T11 construct: expressed in transfected cells; host or cells: S. cerevisiae Y190 two-hybrid reporter strain
# Protocol: as §2
# PYR1 K59R M158C = target: T12, PYR1 K59R M158C (Arabidopsis thaliana, UniProt O49686, K59R/M158C); assay: Y2H Pocket Library Screen (HAB1, X-gal)
# T12 construct: expressed in transfected cells; host or cells: S. cerevisiae Y190 two-hybrid reporter strain
# Protocol: as §2
# PYR1 K59R E141K = target: T13, PYR1 K59R E141K (Arabidopsis thaliana, UniProt O49686, E141K/K59R); assay: Y2H Pocket Library Screen (HAB1, X-gal)
# T13 construct: expressed in transfected cells; host or cells: S. cerevisiae Y190 two-hybrid reporter strain
# Protocol: as §2
# PYR1 K59R A89C = target: T14, PYR1 K59R A89C (Arabidopsis thaliana, UniProt O49686, A89C/K59R); assay: Y2H Pocket Library Screen (HAB1, X-gal)
# T14 construct: expressed in transfected cells; host or cells: S. cerevisiae Y190 yeast two-hybrid reporter strain
# Protocol: as §2
# PYR1 K59R T162K = target: T15, PYR1 K59R T162K (Arabidopsis thaliana, UniProt O49686, K59R/T162K); assay: Y2H Pocket Library Screen (HAB1, X-gal)
# T15 construct: expressed in transfected cells; host or cells: S. cerevisiae Y190
# Protocol: as §2
# PYR1 K59R F159L = target: T16, PYR1 K59R F159L (Arabidopsis thaliana, UniProt O49686, F159L/K59R); assay: Y2H Pocket Library Screen (HAB1, X-gal)
# T16 construct: expressed in transfected cells; host or cells: S. cerevisiae Y190
# Protocol: as §2
# PYR1 K59R F159A = target: T17, PYR1 K59R F159A (Arabidopsis thaliana, UniProt O49686, F159A/K59R); assay: Y2H Pocket Library Screen (HAB1, X-gal)
# T17 construct: expressed in transfected cells; host or cells: S. cerevisiae Y190 two-hybrid reporter strain
# Protocol: as §2
# PYR1 K59R F159C = target: T18, PYR1 K59R F159C (Arabidopsis thaliana, UniProt O49686, F159C/K59R); assay: Y2H Pocket Library Screen (HAB1, X-gal)
# T18 construct: expressed in transfected cells; host or cells: S. cerevisiae Y190 two-hybrid reporter strain
# Protocol: as §2
# PYR1 K59R M158V = target: T19, PYR1 K59R M158V (Arabidopsis thaliana, UniProt O49686, K59R/M158V); assay: Y2H Pocket Library Screen (HAB1, X-gal)
# T19 construct: expressed in transfected cells; host or cells: S. cerevisiae Y190 two-hybrid reporter strain
# Protocol: as §2
# PYR1 K59R F159V = target: T20, PYR1 K59R F159V (Arabidopsis thaliana, UniProt O49686, F159V/K59R); assay: Y2H Pocket Library Screen (HAB1, X-gal)
# T20 construct: expressed in transfected cells; host or cells: S. cerevisiae Y190
# Protocol: as §2
# PYR1 K59R F159I = target: T21, PYR1 K59R F159I (Arabidopsis thaliana, UniProt O49686, F159I/K59R); assay: Y2H Pocket Library Screen (HAB1, X-gal)
# T21 construct: expressed in transfected cells; host or cells: S. cerevisiae Y190 two-hybrid reporter strain
# Protocol: as §2
# PYR1 K59R F159M = target: T22, PYR1 K59R F159M (Arabidopsis thaliana, UniProt O49686, F159M/K59R); assay: Y2H Pocket Library Screen (HAB1, X-gal)
# T22 construct: expressed in transfected cells; host or cells: S. cerevisiae Y190
# Protocol: as §2
# PYR1 K59R T162W = target: T23, PYR1 K59R T162W (Arabidopsis thaliana, UniProt O49686, K59R/T162W); assay: Y2H Pocket Library Screen (HAB1, X-gal)
# T23 construct: expressed in transfected cells; host or cells: S. cerevisiae Y190
# Protocol: as §2
# PYR1 K59R L117C = target: T24, PYR1 K59R L117C (Arabidopsis thaliana, UniProt O49686, K59R/L117C); assay: Y2H Pocket Library Screen (HAB1, X-gal)
# T24 construct: expressed in transfected cells; host or cells: S. cerevisiae Y190 two-hybrid reporter strain
# Protocol: as §2
# PYR1 K59R T162Y = target: T25, PYR1 K59R T162Y (Arabidopsis thaliana, UniProt O49686, K59R/T162Y); assay: Y2H Pocket Library Screen (HAB1, X-gal)
# T25 construct: expressed in transfected cells; host or cells: S. cerevisiae Y190
# Protocol: as §2
# PYR1 K59R V164Y = target: T26, PYR1 K59R V164Y (Arabidopsis thaliana, UniProt O49686, K59R/V164Y); assay: Y2H Pocket Library Screen (HAB1, X-gal)
# T26 construct: expressed in transfected cells; host or cells: S. cerevisiae Y190 two-hybrid reporter strain
# Protocol: as §2
# PYR1 K59R V81I = target: T27, PYR1 K59R V81I (Arabidopsis thaliana, UniProt O49686, K59R/V81I); assay: Y2H Pocket Library Screen (HAB1, X-gal)
# T27 construct: expressed in transfected cells; host or cells: S. cerevisiae Y190 yeast two-hybrid reporter strain
# Protocol: as §2
# PYR1 K59R V83L = target: T28, PYR1 K59R V83L (Arabidopsis thaliana, UniProt O49686, K59R/V83L); assay: Y2H Pocket Library Screen (HAB1, X-gal)
# T28 construct: expressed in transfected cells; host or cells: S. cerevisiae Y190 yeast two-hybrid reporter strain
# Protocol: as §2
# PYR1 K59R V164K = target: T29, PYR1 K59R V164K (Arabidopsis thaliana, UniProt O49686, K59R/V164K); assay: Y2H Pocket Library Screen (HAB1, X-gal)
# T29 construct: expressed in transfected cells; host or cells: S. cerevisiae Y190
# Protocol: as §2
# PYR1 K59R M158I = target: T30, PYR1 K59R M158I (Arabidopsis thaliana, UniProt O49686, K59R/M158I); assay: Y2H Pocket Library Screen (HAB1, X-gal)
# T30 construct: expressed in transfected cells; host or cells: S. cerevisiae Y190 two-hybrid reporter strain
# Protocol: as §2
# PYR1 K59R F159T = target: T31, PYR1 K59R F159T (Arabidopsis thaliana, UniProt O49686, F159T/K59R); assay: Y2H Pocket Library Screen (HAB1, X-gal)
# T31 construct: expressed in transfected cells; host or cells: S. cerevisiae Y190
# Protocol: as §2
# T11 sequence (O49686 whole entry K59R/E141Y): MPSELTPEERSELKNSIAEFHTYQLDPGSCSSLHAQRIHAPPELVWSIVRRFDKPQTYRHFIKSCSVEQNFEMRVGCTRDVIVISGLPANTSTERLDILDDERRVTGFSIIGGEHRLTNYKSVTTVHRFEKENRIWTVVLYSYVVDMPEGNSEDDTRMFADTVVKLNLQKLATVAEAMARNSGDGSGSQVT
# T11 sequence (Q9CAJ0 23-511, further chain): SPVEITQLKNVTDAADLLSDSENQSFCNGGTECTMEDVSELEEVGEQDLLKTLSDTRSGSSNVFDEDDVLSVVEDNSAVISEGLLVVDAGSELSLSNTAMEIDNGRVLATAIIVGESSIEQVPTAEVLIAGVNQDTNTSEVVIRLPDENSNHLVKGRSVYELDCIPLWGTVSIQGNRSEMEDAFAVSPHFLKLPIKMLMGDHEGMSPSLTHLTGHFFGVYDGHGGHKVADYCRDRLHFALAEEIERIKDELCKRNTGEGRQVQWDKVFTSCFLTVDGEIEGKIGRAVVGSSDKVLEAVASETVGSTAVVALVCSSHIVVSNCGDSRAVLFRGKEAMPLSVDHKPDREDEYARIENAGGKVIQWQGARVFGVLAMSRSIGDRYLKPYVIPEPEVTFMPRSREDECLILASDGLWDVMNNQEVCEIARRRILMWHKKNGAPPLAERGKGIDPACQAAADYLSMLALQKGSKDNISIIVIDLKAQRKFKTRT
# T14 sequence (O49686 whole entry K59R/A89C): as the sequence (O49686 whole entry K59R/E141Y) above, with A89C, Y141E counted along it
# T14 sequence (Q9CAJ0 23-511, further chain): as the sequence (Q9CAJ0 23-511, further chain) above
# T19 sequence (O49686 whole entry K59R/M158V): as the sequence (O49686 whole entry K59R/E141Y) above, with Y141E, M158V counted along it
# T19 sequence (Q9CAJ0 23-511, further chain): as the sequence (Q9CAJ0 23-511, further chain) above
# T9 sequence (O49686 whole entry K59R/A160G): as the sequence (O49686 whole entry K59R/E141Y) above, with Y141E, A160G counted along it
# T9 sequence (Q9CAJ0 23-511, further chain): as the sequence (Q9CAJ0 23-511, further chain) above
# T5 sequence (O49686 whole entry K59R/A89C/L117C): as the sequence (O49686 whole entry K59R/E141Y) above, with A89C, L117C, Y141E counted along it
# T5 sequence (Q9CAJ0 23-511, stated change not applied, further chain): as the sequence (Q9CAJ0 23-511, further chain) above
# T28 sequence (O49686 whole entry K59R/V83L): as the sequence (O49686 whole entry K59R/E141Y) above, with V83L, Y141E counted along it
# T28 sequence (Q9CAJ0 23-511, further chain): as the sequence (Q9CAJ0 23-511, further chain) above
# T23 sequence (O49686 whole entry K59R/T162W): as the sequence (O49686 whole entry K59R/E141Y) above, with Y141E, T162W counted along it
# T23 sequence (Q9CAJ0 23-511, further chain): as the sequence (Q9CAJ0 23-511, further chain) above
smiles,measurement,setting,value
"c1ccc2snnc2c1 [Benzothiadiazole, benzothiadiazole]",Threshold,PYR1 K59R A89C E141Y,0.2 µM
same,Threshold,PYR1 K59R L117C V164K,100 µM
same,Threshold,PYR1 K59R A160G V164K,5 µM
same,Threshold,PYR1 K59R A160G L117C,25 µM
same,Threshold,PYR1 K59R A89C L117C,25 µM
same,Threshold,PYR1 K59R E141Y A160G,5 µM
same,Threshold,PYR1 K59R A89C V164K,0.2 µM
same,Threshold,PYR1 K59R A89C A160G,5 µM
same,Threshold,PYR1 K59R A160G,100 µM
same,Threshold,PYR1 K59R M158T,100 µM
same,Threshold,PYR1 K59R E141Y,100 µM
same,Threshold,PYR1 K59R M158C,100 µM
same,Threshold,PYR1 K59R E141K,100 µM
same,Threshold,PYR1 K59R A89C,100 µM
same,Threshold,PYR1 K59R T162K,100 µM
same,Threshold,PYR1 K59R F159L,100 µM
same,Threshold,PYR1 K59R F159A,100 µM
same,Threshold,PYR1 K59R F159C,100 µM
same,Threshold,PYR1 K59R M158V,100 µM
same,Threshold,PYR1 K59R F159V,100 µM
same,Threshold,PYR1 K59R F159I,100 µM
same,Threshold,PYR1 K59R F159M,100 µM
same,Threshold,PYR1 K59R T162W,100 µM
same,Threshold,PYR1 K59R L117C,100 µM
same,Threshold,PYR1 K59R T162Y,100 µM
same,Threshold,PYR1 K59R V164Y,100 µM
same,Threshold,PYR1 K59R V81I,100 µM
same,Threshold,PYR1 K59R V83L,100 µM
same,Threshold,PYR1 K59R V164K,100 µM
same,Threshold,PYR1 K59R M158I,100 µM
same,Threshold,PYR1 K59R F159T,100 µM
